Test results reported in patent US20180319810A1, “SUBSTITUTED BRIDGED UREA ANALOGS AS SIRTUIN MODULATORS” (GlaxoSmithKline Intellectual Property (No.2) Limited, priority 2014, published 2018).

Molecular target: T1, SIRT1 (Homo sapiens, UniProt Q96EB6)
T1 sequence (Q96EB6 1-747): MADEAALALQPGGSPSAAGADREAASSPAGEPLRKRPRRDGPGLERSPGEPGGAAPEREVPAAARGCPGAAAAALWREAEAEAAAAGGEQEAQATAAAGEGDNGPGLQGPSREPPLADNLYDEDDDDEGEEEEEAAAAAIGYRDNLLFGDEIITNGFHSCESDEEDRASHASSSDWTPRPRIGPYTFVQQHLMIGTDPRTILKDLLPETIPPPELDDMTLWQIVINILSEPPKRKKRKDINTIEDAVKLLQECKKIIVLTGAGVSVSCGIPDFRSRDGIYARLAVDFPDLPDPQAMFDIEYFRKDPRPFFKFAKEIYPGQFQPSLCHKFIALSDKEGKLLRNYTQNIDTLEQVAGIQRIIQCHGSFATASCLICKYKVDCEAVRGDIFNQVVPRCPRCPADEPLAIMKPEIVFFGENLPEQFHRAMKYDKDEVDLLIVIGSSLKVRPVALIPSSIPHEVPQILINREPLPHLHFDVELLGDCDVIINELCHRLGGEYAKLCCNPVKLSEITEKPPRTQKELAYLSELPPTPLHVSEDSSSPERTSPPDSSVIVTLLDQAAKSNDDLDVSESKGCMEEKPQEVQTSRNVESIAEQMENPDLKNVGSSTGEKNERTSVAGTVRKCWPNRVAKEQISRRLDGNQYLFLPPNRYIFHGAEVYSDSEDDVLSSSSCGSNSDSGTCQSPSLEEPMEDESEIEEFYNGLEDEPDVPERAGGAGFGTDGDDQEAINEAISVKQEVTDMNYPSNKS
Assay: Trp mass spectrometry assay of SIRT1 activation
Assay type: biochemical
Conditions: Trp peptide Ac-R-H-K-K(Ac)-W-NH2 0.5 μM, 120 μM βNAD+, 10 nM SIRT1, 25 min, 25° C.

| TRP Activity (EC1.5, concentration of compound required to increase SIRT1 activity by 50% over control) | TRP MAX RESP (percent maximum fold activation relative to control) | Compound |
| --- | --- | --- |
| A (EC1.5<1 μM) | A (Fold activation ≥150%) | O=C(Nc1ccc(OC[C@H](O)CO)nc1)N1c2nc(-c3cccc(C(F)(F)F)c3)ncc2N2CC[C@H]1C2 [Example 39, (8S)—N-(6-((R)-2,3-dihydroxypropoxy)pyridin-3-yl)-2-(3-(trifluoromethyl)phenyl)-7,8-dihydro-5,8-methanopyrimido[4,5-b][1,4]diazepine-9(6H)-carboxamide] |
| A (EC1.5<1 μM) | A (Fold activation ≥150%) | O=C(Nc1ccc(OC[C@H](O)CO)cn1)N1c2nc(-c3cccc(C(F)(F)F)c3)ncc2N2CC[C@H]1C2 [Example 40, (8S)—N-(5-((R)-2,3-dihydroxypropoxy)pyridin-2-yl)-2-(3-(trifluoromethyl)phenyl)-7,8-dihydro-5,8-methanopyrimido[4,5-b][1,4]diazepine-9(6H)-carboxamide] |
| B (EC1.5 1-25 μM) | A (Fold activation ≥150%) | O=C(Nc1ncc(OC[C@H](O)CO)cn1)N1c2nc(-c3cccc(C(F)(F)F)c3)ncc2N2CC[C@H]1C2 [Example 41, (8S)—N-(5-((R)-2,3-dihydroxypropoxy)pyrimidin-2-yl)-2-(3-(trifluoromethyl)phenyl)-7,8-dihydro-5,8-methanopyrimido[4,5-b][1,4]diazepine-9(6H)-carboxamide] |
| B (EC1.5 1-25 μM) | A (Fold activation ≥150%) | O=C(Nc1ccc(OC[C@@H](O)CO)cn1)N1c2nc(-c3cccc(C(F)(F)F)c3)ncc2N2CC[C@H]1C2 [Example 42, (8S)—N-(5-((S)-2,3-dihydroxypropoxy)pyridin-2-yl)-2-(3-(trifluoromethyl)phenyl)-7,8-dihydro-5,8-methanopyrimido[4,5-b][1,4]diazepine-9(6H)-carboxamide] |
| B (EC1.5 1-25 μM) | A (Fold activation ≥150%) | O=C(Nc1ncc(OC[C@@H](O)CO)cn1)N1c2nc(-c3cccc(C(F)(F)F)c3)ncc2N2CC[C@H]1C2 [Example 43, (8S)—N-(5-((S)-2,3-dihydroxypropoxy)pyrimidin-2-yl)-2-(3-(trifluoromethyl)phenyl)-7,8-dihydro-5,8-methanopyrimido[4,5-b][1,4]diazepine-9(6H)-carboxamide] |
| B (EC1.5 1-25 μM) | A (Fold activation ≥150%) | O=C(Nc1cnnc(OC[C@H](O)CO)c1)N1c2nc(-c3cccc(C(F)(F)F)c3)ncc2N2CC[C@H]1C2 [Example 44, (8S)—N-(6-((R)-2,3-dihydroxypropoxy)pyridazin-4-yl)-2-(3-(trifluoromethyl)phenyl)-7,8-dihydro-5,8-methanopyrimido[4,5-b][1,4]diazepine-9(6H)-carboxamide] |
| A (EC1.5<1 μM) | A (Fold activation ≥150%) | Cc1nc(-c2cccc(C(F)(F)F)c2)nc2c1N1CC[C@@H](C1)N2C(=O)Nc1cncc(OC[C@H](O)CO)c1 [Example 45, (8S)—N-(5-((R)-2,3-dihydroxypropoxy)pyridin-3-yl)-4-methyl-2-(3-(trifluoromethyl)phenyl)-7,8-dihydro-5,8-methanopyrimido[4,5-b][1,4]diazepine-9(6H)-carboxamide] |
| B (EC1.5 1-25 μM) | A (Fold activation ≥150%) | Cc1nc(-c2cccc(C(F)(F)F)c2)nc2c1N1CC[C@@H](C1)N2C(=O)Nc1cncc(OC[C@@H](O)CO)c1 [Example 46, (8S)—N-(5-((S)-2,3-dihydroxypropoxy)pyridin-3-yl)-4-methyl-2-(3-(trifluoromethyl)phenyl)-7,8-dihydro-5,8-methanopyrimido[4,5-b][1,4]diazepine-9(6H)-carboxamide] |
| B (EC1.5 1-25 μM) | A (Fold activation ≥150%) | Cc1nc(-c2cccc(C(F)(F)F)c2)nc2c1N1CC[C@@H](C1)N2C(=O)Nc1nccc(OC[C@@H](O)CO)n1 [Example 47, (8S)—N-(4-((S)-2,3-dihydroxypropoxy)pyrimidin-2-yl)-4-methyl-2-(3-(trifluoromethyl)phenyl)-7,8-dihydro-5,8-methanopyrimido[4,5-b][1,4]diazepine-9(6H)-carboxamide] |
| B (EC1.5 1-25 μM) | A (Fold activation ≥150%) | Cc1nc(-c2cccc(C(F)(F)F)c2)nc2c1N1CC[C@@H](C1)N2C(=O)Nc1ccc(OC[C@H](O)CO)cn1 [Example 48, (8S)—N-(5-((R)-2,3-dihydroxypropoxy)pyridin-2-yl)-4-methyl-2-(3-(trifluoromethyl)phenyl)-7,8-dihydro-5,8-methanopyrimido[4,5-b][1,4]diazepine-9(6H)-carboxamide] |
| B (EC1.5 1-25 μM) | A (Fold activation ≥150%) | O=C(Nc1cnc(OC[C@H](O)CO)nc1)N1c2nc(-c3cccc(C(F)(F)F)c3)ncc2N2CC[C@H]1C2 [Example 49, (8S)—N-(2-((R)-2,3-dihydroxypropoxy)pyrimidin-5-yl)-2-(3-(trifluoromethyl)phenyl)-7,8-dihydro-5,8-methanopyrimido[4,5-b][1,4]diazepine-9(6H)-carboxamide] |
| B (EC1.5 1-25 μM) | A (Fold activation ≥150%) | O=C(Nc1cncc(OC[C@@H](O)CO)n1)N1c2nc(-c3cccc(C(F)(F)F)c3)ncc2N2CC[C@H]1C2 [Example 50, (8S)—N-(6-((S)-2,3-dihydroxypropoxy)pyrazin-2-yl)-2-(3-(trifluoromethyl)phenyl)-7,8-dihydro-5,8-methanopyrimido[4,5-b][1,4]diazepine-9(6H)-carboxamide] |
| B (EC1.5 1-25 μM) | A (Fold activation ≥150%) | O=C(Nc1nccc(OC[C@@H](O)CO)n1)N1c2nc(-c3cccc(C(F)(F)F)c3)ncc2N2CC[C@H]1C2 [Example 51, (8S)—N-(4-((S)-2,3-dihydroxypropoxy)pyrimidin-2-yl)-2-(3-(trifluoromethyl)phenyl)-7,8-dihydro-5,8-methanopyrimido[4,5-b][1,4]diazepine-9(6H)-carboxamide] |
| B (EC1.5 1-25 μM) | A (Fold activation ≥150%) | O=C(Nc1cnc(OC[C@@H](O)CO)nc1)N1c2nc(-c3cccc(C(F)(F)F)c3)ncc2N2CC[C@H]1C2 [Example 53, (8S)—N-(2-((S)-2,3-dihydroxypropoxy)pyrimidin-5-yl)-2-(3-(trifluoromethyl)phenyl)-7,8-dihydro-5,8-methanopyrimido[4,5-b][1,4]diazepine-9(6H)-carboxamide] |
| B (EC1.5 1-25 μM) | A (Fold activation ≥150%) | O=C(Nc1cnnc(OC[C@@H](O)CO)c1)N1c2nc(-c3cccc(C(F)(F)F)c3)ncc2N2CC[C@H]1C2 [Example 54, (8S)—N-(6-((S)-2,3-dihydroxypropoxy)pyridazin-4-yl)-2-(3-(trifluoromethyl)phenyl)-7,8-dihydro-5,8-methanopyrimido[4,5-b][1,4]diazepine-9(6H)-carboxamide] |
| B (EC1.5 1-25 μM) | A (Fold activation ≥150%) | Cc1nc(-c2cccc(C(F)(F)F)c2)nc2c1N1CC[C@@H](C1)N2C(=O)Nc1cnc(OC[C@H](O)CO)nc1 [Example 55, (8S)—N-(2-((R)-2,3-dihydroxypropoxy)pyrimidin-5-yl)-4-methyl-2-(3-(trifluoromethyl)phenyl)-7,8-dihydro-5,8-methanopyrimido[4,5-b][1,4]diazepine-9(6H)-carboxamide] |

| Compound | TRP Activity (EC1.5, concentration of compound required to increase SIRT1 activity by 50% over control) | TRP MAX RESP (percent maximum fold activation relative to control) |
| --- | --- | --- |
| O=C(NC1CCCC1)N1c2nc(-c3cccc(C(F)(F)F)c3)ncc2N2CC[C@H]1C2 [Example 52, (8S)—N-cyclopentyl-2-(3-(trifluoromethyl)phenyl)-7,8-dihydro-5,8-methanopyrimido[4,5-b][1,4]diazepine-9(6H)-carboxamide] | B (EC1.5 1-25 μM) | A (Fold activation ≥150%) |
